The record followed here is patent publication US20260069530A1, “METHODS OF TREATING PRIMARY LIVER TUMORS WITH NATURAL KILLER CELLS EXPRESSING A CYTOTOXIC RECEPTOR COMPLEX” (NKARTA, INC., priority 2018, published 2026).

The subject of one data set is Huh-7. The experiment in a line: sorafenib dose-response against HCC cell lines. The note with it: read-out: EC50 (concentration to achieve 50% cytotoxicity); FIG. 7B.
For another data set, the system named is NKG2D ligands. The experiment in a line: total NKG2D ligand expression on HCC cell lines, flow cytometry with NKG2D-Fc. The class given is cell-based, human. From the text: (§1) FIGS. 17A-17N relate to expression of total NKG2D ligands and PD-L1 in relation to sorafenib concentration. FIGS. 17A-17F depict flow cytometry data related to changes in total NKG2D ligand expression in the indicated tumor cell lines in response to various concentrations of sorafenib (total expression is based on the use of the NKG2D-Fc fusion, so detection is of any ligand NKG2D could bind). FIGS. 17G-17L depict flow cytometry data related to changes in PD-L1 expression in the indicated tumor cell lines in response to various concentrations of sorafenib. FIGS. 17M and 17N are line graphs that summarize the flow cytometry data.
(§2) FIGS. 18A-18T relate to expression of total NKG2D ligands and PD-L1 in relation to Interferon gamma (IFNg) concentration. FIGS. 18A-18I depict flow cytometry data related to changes in total NKG2D ligand expression in the indicated tumor cell lines in response to various concentrations of IFNg (total expression is based on the use of the NKG2D-Fc fusion, so detection is of any ligand NKG2D could bind). […]
(§3) To investigate a possible mechanism of action regarding the sensitivity of hepatocellular carcinoma cells to sorafenib, the expression of the total population of NKG2D ligands on each cell line was measured in response to various doses of sorafenib. The total population of NKG2D ligands was detected through the use of the NKG2D-Fc chimeric antibody. […]

The test system of a further data set is PD-L1. Put plainly: PD-L1 expression on HCC cell lines, flow cytometry. In kind it is cell-based, human.
Text: as §1, §2, §3
For orientation: In flow cytometry, cells or beads pass a laser one at a time.

Another data set relates to SNU-387 cells. Put plainly: sorafenib dose-response against HCC cell lines. The note with it: read-out: EC50 (concentration to achieve 50% cytotoxicity); FIG. 7B.
In another data set the test system is HL60 cells. The experiment in a line: HL60 leukemia cell growth in co-culture with NK cells, with or without HDAC inhibitor. In kind it is cell-based. The note with it: valproic acid added to culture with NK cells expressing the NKG2D CAR (FIG. 35B). The procedure:
As discussed above, additional agents can be co-administered with engineered NK cells disclosed herein. For example, in several embodiments, histone deacetylase inhibitors are administered with engineered NK cells targeting an NKG2D ligand (or other tumor marker, such as CD123 or CD19). The leukemia cell line was grown alone as a control, co-cultured with NK cells expressing GFP, or co-cultured with NK cells expressing an NKG2D CAR as disclosed herein. By way of non-limiting example, the NKG2D CAR used in this example was NKG2D-OX40-[…]-mbIL15. […] According to additional embodiments, other HDAC inhibitors are used, such as romidepsin (e.g. FR901228), entinostat (e.g., MS-275) phenylbutyrate, belinostat (PDX101), sodium valproate, suberoylanilide hydroxamic acid, or combinations thereof.

Method for HCC cells: NKX101 cells were generated by transduction with a bicistronic virus encoding NKG2D, an intracellular OX40 costimulatory domain, CD33 signaling domain, and membrane-bound IL-15, which supports prolonged cell survival and proliferation. […] Combination with a sub-EC50 concentration of the kinase inhibitor Sorafenib (used here as a non-limiting example of an additional anti-cancer agent), an approved agent for HCC, was tested for additive cytotoxic effect with at low E:T ratios of NKX101 NK cells in vitro at 48 hrs.

On to `CNC(=O)c1cc(Oc2ccc(NC(=O)Nc3ccc(Cl)c(C(F)(F)F)c3)cc2)ccn1` [sorafenib], for which the EC50 was found to be 7.96 µM with Huh-7 and 29.4 µM in the data set with SNU-387 cells. The “cytotoxic effect of combination” value in the data set with HCC cells was “additive effect”. Moreover, the “change in total NKG2D ligand expression” value in the data set with NKG2D ligands (various doses of sorafenib (FIG. 17M)) is reported as “does not appear to have a substantial impact on the NKG2D ligand expression”. The “change in PD-L1 expression” value with PD-L1 (10 micromolar sorafenib (FIG. 17N)) is on record as “many of the cell lines show an increase in PD-L1 expression”.

As for `CCCC(CCC)C(=O)O` [valproic acid], in the data set on HL60 cells, the HL60 cell growth result is listed as “synergistically interacted with the NK cells expressing the NKG2D CAR dramatically suppress HL-60 cell growth”.

With “interferon gamma: inflammatory cytokine secreted by NK cells once activated”, the “change in total NKG2D ligand expression” value with NKG2D ligands (various concentrations of interferon gamma, nine HCC lines (FIG. 18S)) is “there does not appear to be a clear impact of interferon gamma on the expression of the total pool of NKG2D ligands”. For the same compound, the “change in PD-L1 expression” value in the data set with PD-L1 (higher doses of interferon gamma (FIG. 18T)) is reported as “several cell lines seem to show a trend towards increasing PD-L1 expression with the higher doses of interferon gamma”.
